Laboratory results as given in patent US20090088380A1, “GHRH ANALOGS AND THERAPEUTIC USES THEREOF” (priority 2007, published 2009).
Several values for one entry are separate records, joined by “and”; a condition that tells them apart may be missing. Equal entries are not always repeated. Non-standard residues stand in square brackets, D forms with d. Residues, ends and D or L forms follow the SMILES beside them.

How the values were obtained:
endogenous GH secretion = test: Phase II CKD: 24-hour GH profile and deconvolution; type: in vivo, human
Description: Blood samples for assessment of GH secretion had to be taken over 24 hours because the release of endogenous GH was pulsatile and not consistent throughout the day. Much of endogenous GH release is closely coupled to periods of slow-wave sleep, and the bulk of GH secretion usually occurs between midnight and 4 am. […] To document clearly the effect of the GHRH(1-29)NH2 synthetic analog on endogenous GH secretion, the following protocol had been designed: first, baseline endogenous GH secretion was assessed on Day 0 by sampling blood every 20 minutes for 20 hours and every 10 minutes for 4 hours. At the end of this sampling period (in the afternoon of Day 1), the first injection of the GHRH(1-29)NH2 synthetic analog was given. At the end of the 4-week treatment period (Day 28), GH secretion was reassessed by another 24-hour secretion profile. This profile started at 8:30 am with the morning injection of the GHRH(1-29)NH2 synthetic analog. Blood was collected every 10 minutes for the first 4 hours, followed by sampling every 20 minutes for the next 20 hours; this period included the afternoon injection of the GHRH(1-29)NH2 synthetic analog. In this way, it was possible to assess the evolution of both the pituitary's immediate GHRH response and that of time-integrated 24-hour GH secretion over extended treatment.
On Day 0 (baseline) and Day 28, subjects commenced 24-hour sampling at 10 and 20-minute intervals to construct a GH profile. […] The cannula was flushed with heparin-saline solution after each blood withdrawal to prevent clotting. Immediately before each blood collection, the residual heparin-saline volume instilled in the cannula was withdrawn with 0.5 mL blood in a separate syringe. This volume was reinjected after collection of the sample used for GH analysis.
At the baseline visit, blood sampling for the 24-hour GH profile commenced on Day 0 by taking samples at 20-minute intervals for 20 hours. Immediately at the end of this period, on the morning of Day 1, samples were taken at 10-minute intervals for 4 hours. The first dose of investigational product was not given before the end of the 24-hour GH profile period. On Day 28, samples were taken pre-dose, at 10-minute intervals for the first 4 hours (at the same time of day as the 4-hour period on Day 1) and at 20-minute intervals thereafter for a further 20 hours.
Samples were analysed for GH at the Department of Nephrology, Endocrinology and Metabolic Diseases, Silesian University School of Medicine, Katowice, Poland using a commercial kit.

[1] = test system: malnourished subjects with CKD; test: Phase II CKD: vital signs; type: in vivo, human; details: for Diastolic blood pressure: mean (SD) / Heart rate: mean (SD) / Systolic blood pressure: mean (SD): Safety Analysis Set
Excerpt: Mean systolic blood pressure was lower at Day 28 compared with baseline in the GHRH(1-29)NH2 synthetic analog group but higher compared with baseline in the placebo group (Table 37). […] Similarly, mean diastolic blood pressure was lower at Day 28 compared with baseline in the GHRH(1-29)NH2 synthetic analog group but this was not part of a trend.

[2] = GH deconvolution, ITT, Baseline
[3] = GH deconvolution, ITT, Day 28, vs placebo

## CC[C@H](C)[C@H](NC(=O)[C@H](C)NC(=O)[C@H](CC(=O)O)NC(=O)[C@@H](C)NC(=O)[C@@H](N)Cc1ccc(O)cc1)C(=O)N[C@@H](Cc1ccccc1)C(=O)N[C@H](C(=O)N[C@@H](CC(N)=O)C(=O)N[C@@H](CO)C(=O)N[C@H](Cc1ccc(O)cc1)C(=O)N[C@@H](CCCNC(=N)N)C(=O)N[C@@H](CCCCN)C(=O)N[C@H](C(=O)N[C@@H](CC(C)C)C(=O)N[C@H](C)C(=O)N[C@@H](CCC(N)=O)C(=O)N[C@@H](CC(C)C)C(=O)N[C@@H](CO)C(=O)N[C@@H](C)C(=O)N[C@@H](CCCNC(=N)N)C(=O)N[C@@H](CCCCN)C(=O)N[C@@H](CCCCN)C(=O)N[C@@H](CC(C)C)C(=O)N[C@@H](CCC(N)=O)C(=O)N[C@@H](CC(=O)O)C(=O)N[C@H](C(=O)N[C@@H](CCSC)C(=O)N[C@@H](CO)C(=O)N[C@@H](CCCNC(=N)N)C(N)=O)[C@@H](C)CC)C(C)C)[C@@H](C)O [GHRH analog #5, [D-Ala^2, D-Tyr^10, D-Ala^15, Lys^22] hGHRH(1-29)-NH2] (H-Y[dA]DAIFTNS[dY]RKVL[dA]QLSARKKLQDIMSR-NH2)
Endogenous GH secretion; [2]
  1st component half-life: median: 6 min
  2nd component half-life: median: 16 min
  % pulsatile secretion rate: mean (SD): 79.02 (9.09) %
  Basal secretion rate: median: 27 mU/L/24 h
  Inter-pulse regularity: mean (SD): 2.35 (0.63)
  Mass per pulse: mean (SD): 11.30 (7.02) mU/L
  Mean pulse frequency (per 24 h): mean (SD): 8.09 (2.81) per 24 h
  Number of pulses: mean (SD): 8.8 (3.2)
  Pulsatile secretion rate: median: 100 mU/L/24 h
  Time from onset to peak of burst: mean (SD): 32.8 (3.9) min
  Total secretion rate: median: 120 mU/L/24 h
Endogenous GH secretion; GH deconvolution, ITT, Day 28
  1st component half-life: median: 2 min
  2nd component half-life: comparison vs placebo: 4.8
  2nd component half-life: median: 26 min
  % pulsatile secretion rate: comparison vs placebo: −0.4
  % pulsatile secretion rate: mean (SD): 71.27 (16.24) %
  Basal secretion rate: median: 98 mU/L/24 h
  Inter-pulse regularity: comparison vs placebo: −0.0
  Inter-pulse regularity: mean (SD): 1.95 (0.30)
  Mass per pulse: comparison vs placebo: 26.5
  Mass per pulse: mean (SD): 43.88 (36.16) mU/L
  Mean pulse frequency (per 24 h): mean (SD): 9.07 (3.49) per 24 h
  Mean pulse frequency: comparison vs placebo: 0.8
  Number of pulses: comparison vs placebo: 0.3
  Number of pulses: mean (SD): 9.7 (3.7)
  Pulsatile secretion rate: median: 378 mU/L/24 h
  Time from onset to peak of burst: comparison vs placebo: −4.5
  Time from onset to peak of burst: mean (SD): 27.3 (4.7) min
  Total secretion rate: median: 495 mU/L/24 h
Endogenous GH secretion; [3]
  Basal secretion rate: comparison or ratio of means: 2.53
  Pulsatile secretion rate: comparison or ratio of means: 2.81
  Total secretion rate: comparison or ratio of means: 2.72
Endogenous GH secretion; ITT
  GH AUC first 4 hours: increase from baseline to day 28: 1137%
Endogenous GH secretion; ITT, Baseline
  GH AUC at 4 h: median: 315 μIU/mL × min
  GH AUC at 24 h: median: 3473 μIU/mL × min
  GH SD at 4 h: median: 1.0 μIU/mL
  GH SD at 24 h: median: 2.9 μIU/mL
  GH concentration at 4 h: median: 1.3 μIU/mL
  GH concentration at 24 h: median: 2.1 μIU/mL
  Mean concentration of GH secreted during the first 4 hours: 1.72 μIU/ml
Endogenous GH secretion; ITT, Day 28
  GH AUC at 4 h: median: 3891 μIU/mL × min
  GH AUC at 24 h: difference vs placebo: 11585 μIU/mL × min
  GH AUC at 24 h: median: 16753 μIU/mL × min
  GH SD at 4 h: median: 11.6 μIU/mL
  GH SD at 24 h: median: 13.3 μIU/mL
  GH concentration at 4 h: median: 16.2 μIU/mL
  GH concentration at 24 h: comparison vs placebo: 9.5
  GH concentration at 24 h: median: 12.5 μIU/mL
Endogenous GH secretion; ITT, Day 28, vs placebo
  GH AUC at 4 h: ratio: 9.5 and 9.49
  GH SD at 4 h: comparison or ratio of means: 6.97
  GH SD at 24 h: comparison or ratio of means: 3.92
  GH concentration at 4 h: ratio: 9.50
Endogenous GH secretion; ITT, baseline to day 28
  Mean GH concentration first 4 hours: increase: 1136%
Endogenous GH secretion; ITT, day 28
  Mean concentration of GH secreted during the first 4 hours: 21.26 μIU/ml
Endogenous GH secretion; baseline
  Mean amount of GH secreted in 24 hours (AUC): 3770.62 μIU/ml×min
  Mean basal GH secretion rate: 26.9 mU/L/24 h
  Mean concentration of GH: 2.49 μIU/ml
Endogenous GH secretion; baseline to day 28
  Mean 24-hour GH AUC: increase: 393%
Endogenous GH secretion; day 28
  Mean amount of GH secreted in 24 hours (AUC): 18579.9 μIU/ml×min
[1]; Day 7
  Mean systolic blood pressure: 136.4 mmHg
[1]; Day 14
  Mean systolic blood pressure: 139.9 mmHg
[1]; Day 21
  Mean systolic blood pressure: 143.1 mmHg
[1]; Baseline
  Diastolic blood pressure: mean (SD): 82.7 (10.9) mmHg
  Heart rate: mean (SD): 77.7 (11.1) bpm
  Systolic blood pressure: mean (SD): 144.8 (16.0) mmHg
[1]; Day 28
  Diastolic blood pressure: mean (SD): 76.7 (8.1) mmHg
  Heart rate: mean (SD): 76.4 (9.8) bpm
  Systolic blood pressure: mean (SD): 128.3 (16.5) mmHg
[1]; screening
  Mean systolic blood pressure: 142.0 mmHg
